Laboratory results: ChEMBL document CHEMBL1130931, “Synthesis and structure-activity relationships of 7-(2-aminoalkyl)morpholinoquinolones as anti-Helicobacter pylori agents” (1998)
≈ marks a conversion by molar mass, not a printed value.

Experiments:
Assay type in all cases: functional
[1] = test system: Helicobacter pylori; experiment: In vitro minimum inhibitory concentration against growth of Helicobacter pylori ATCC 43504.
[2] = test system: Gerbillinae; experiment: The ratio of the number of Mongolian gerbils in which Helicobacter pylori was not detected to that of Mongolian gerbils tested (percent) was represented as clearance rate at 10 mg/kg dose
[3] = test system: Gerbillinae; experiment: The ratio of the number of Mongolian gerbils in which Helicobacter pylori was not detected to that of Mongolian gerbils tested (percent) was represented as clearance rate at 3 mg/kg dose
[4] = test system: Gerbillinae; experiment: The ratio of the number of Mongolian gerbils in which Helicobacter pylori was not detected to that of Mongolian gerbils tested (percent) was represented as clearance rate at 30 mg/kg dose
[5] = test system: Gerbillinae; experiment: The ratio of the number of Mongolian gerbils in which Helicobacter pylori was not detected to that of Mongolian gerbils tested (percent) was represented as clearance rate
[6] = test system: Gerbillinae; experiment: The ratio of the number of Mongolian gerbils in which Helicobacter pylori was not detected to that of Mongolian gerbils tested (percent) was represented as clearance rate at 0.3 mg/kg dose
[7] = test system: Gerbillinae; experiment: The ratio of the number of Mongolian gerbils in which Helicobacter pylori was not detected to that of Mongolian gerbils tested (percent) was represented as clearance rate at 1 mg/kg dose

| SMILES | MIC [1] [µg/mL] | also measured |
| --- | --- | --- |
| CN(C)CC1CN(c2cc3c(cc2F)c(=O)c(C(=O)O)cn3C2CC2)CCO1 (configuration not stated) | 0.1 (≈ 0.257 µM) | – |
| C[C@H]1COc2c(N3CCN(C)CC3)c(F)cc3c(=O)c(C(=O)O)cn1c23.C[C@H]1COc2c(N3CCN(C)CC3)c(F)cc3c(=O)c(C(=O)O)cn1c23.O [LEVOFLOXACIN] | 0.2 | Ratio [2]: 60%; Ratio [3]: 0% |
| CCN(CC)CC1CN(c2c(F)cc3c(=O)c(C(=O)O)cn(C4CC4)c3c2F)CCO1 (configuration not stated) | 0.2 (≈ 0.459 µM) | – |
| CC1(C)S[C@@H]2[C@H](NC(=O)[C@H](N)c3ccc(O)cc3)C(=O)N2[C@H]1C(=O)O [AMOXICILLIN] | 0.025 (≈ 0.0684 µM) | – |
| COc1c(N2CCO[C@H](CN(C)C)C2)c(F)cc2c(=O)c(C(=O)O)cn(C3CC3)c12 | 0.39 (≈ 0.93 µM) | – |
| CC[C@H]1OC(=O)[C@H](C)[C@@H](O[C@H]2C[C@@](C)(OC)[C@@H](O)[C@H](C)O2)[C@H](C)[C@@H](O[C@@H]2O[C@H](C)C[C@H](N(C)C)[C@H]2O)[C@](C)(OC)C[C@@H](C)C(=O)[C@H](C)[C@@H](O)[C@]1(C)O [CLARITHROMYCIN] | 0.025 (≈ 0.0334 µM) | Ratio [2]: 0%; Ratio [4]: 100% |
| COc1c(N2CCOC(CN(C)C)C2)c(F)cc2c(=O)c(C(=O)O)cn(C3CC3)c12 (configuration not stated) | 0.025 (≈ 0.0596 µM) | – |
| C[C@@H]1CN(c2c(F)c(N)c3c(=O)c(C(=O)O)cn(C4CC4)c3c2F)C[C@H](C)N1 [SPARFLOXACIN] | 0.2 (≈ 0.51 µM) | Ratio [5]: 0% |
| COc1c(N2CCO[C@@H](CN(C)C)C2)c(F)cc2c(=O)c(C(=O)O)cn(C3CC3)c12 | 0.012 (≈ 0.0286 µM) | Ratio [6]: 0%; Ratio [7]: 100% |
| NC1CCN(c2nc3c(cc2F)c(=O)c(C(=O)O)cn3-c2ccc(F)cc2F)C1 (configuration not stated) [TOSUFLOXACIN] | 0.39 (≈ 0.965 µM) | Ratio [5]: 0% |
| CN(C)CC1CN(c2c(F)cc3c(=O)c(C(=O)O)cn(C4CC4)c3c2Cl)CCO1 (configuration not stated) | 0.05 (≈ 0.118 µM) | – |

Now from value to compound, other results behind:

| MIC [1] [µg/mL] | SMILES | also measured |
| --- | --- | --- |
| 0.78 (≈ 1.85 µM) | CC(=O)NCC1CN(c2c(F)cc3c(=O)c(C(=O)O)cn(C4CC4)c3c2F)CCO1 (configuration not stated) | – |
| 0.05 (≈ 0.127 µM) | CNCC1CN(c2c(F)cc3c(=O)c(C(=O)O)cn(C4CC4)c3c2F)CCO1 (configuration not stated) | – |
| 0.39 (≈ 0.925 µM) | CCCNCC1CN(c2c(F)cc3c(=O)c(C(=O)O)cn(C4CC4)c3c2F)CCO1 (configuration not stated) | – |
| 0.05 (≈ 0.123 µM) | CCNCC1CN(c2c(F)cc3c(=O)c(C(=O)O)cn(C4CC4)c3c2F)CCO1 (configuration not stated) | – |
| 0.025 (≈ 0.0614 µM) | CN(C)CC1CN(c2c(F)cc3c(=O)c(C(=O)O)cn(C4CC4)c3c2F)CCO1 (configuration not stated) | – |
| 0.2 (≈ 0.508 µM) | NCCC1CN(c2c(F)cc3c(=O)c(C(=O)O)cn(C4CC4)c3c2F)CCO1 (configuration not stated) | – |
| 0.05 (≈ 0.132 µM) | NCC1CN(c2c(F)cc3c(=O)c(C(=O)O)cn(C4CC4)c3c2F)CCO1 (configuration not stated) | Ratio [5]: 80% |
